Experimental data: article PMC9090415, “Discovery of small molecule inhibitors of Plasmodium falciparum apicoplast DNA polymerase” (Journal of Enzyme Inhibition and Medicinal Chemistry, 2022)

Biological target: T1, bacteriophage T4 DNA polymerase (Enterobacteria phage T4, UniProt P04415)
T1 construct: made in house
T1 sequence (P04415 1-898): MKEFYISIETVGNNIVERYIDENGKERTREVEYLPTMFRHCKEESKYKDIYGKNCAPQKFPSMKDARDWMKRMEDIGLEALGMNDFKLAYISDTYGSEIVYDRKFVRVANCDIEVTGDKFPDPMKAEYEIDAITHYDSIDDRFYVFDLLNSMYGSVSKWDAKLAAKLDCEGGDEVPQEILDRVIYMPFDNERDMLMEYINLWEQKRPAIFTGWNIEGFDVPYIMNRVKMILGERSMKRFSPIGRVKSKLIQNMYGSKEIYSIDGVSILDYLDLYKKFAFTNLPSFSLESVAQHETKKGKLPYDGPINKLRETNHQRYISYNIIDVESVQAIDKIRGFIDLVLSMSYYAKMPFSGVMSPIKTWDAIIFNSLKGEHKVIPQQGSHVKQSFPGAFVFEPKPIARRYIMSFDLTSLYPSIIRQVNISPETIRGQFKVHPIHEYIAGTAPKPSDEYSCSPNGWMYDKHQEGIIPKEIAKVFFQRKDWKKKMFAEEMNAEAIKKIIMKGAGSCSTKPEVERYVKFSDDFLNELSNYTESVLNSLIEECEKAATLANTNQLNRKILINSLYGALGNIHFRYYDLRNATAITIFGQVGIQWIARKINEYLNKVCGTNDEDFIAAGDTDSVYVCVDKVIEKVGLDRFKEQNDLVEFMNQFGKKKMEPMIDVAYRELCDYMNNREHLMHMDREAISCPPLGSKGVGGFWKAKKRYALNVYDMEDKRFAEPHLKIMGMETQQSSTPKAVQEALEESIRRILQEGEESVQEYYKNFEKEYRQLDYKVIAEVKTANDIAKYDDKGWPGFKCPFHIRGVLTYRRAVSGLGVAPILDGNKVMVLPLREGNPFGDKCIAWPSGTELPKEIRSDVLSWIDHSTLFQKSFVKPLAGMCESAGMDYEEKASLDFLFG
Assay: Counter-screen against bacteriophage T4 DNA polymerase
Assay type: biochemical
Settings: for % inhibition T4 10' 2.5 / % inhibition T4 10' 5 / % inhibition T4 10' 10 / % inhibition T4 10' 20 / % inhibition T4 10' 40 / % inhibition T4 10' 80: read at 10'
Procedure, shortened: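 IC50 values come from dose-response testing of each compound against T4 DNA polymerase. This B-family polymerase was purified in-house and used as the counter-screen.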

## COc1ccc(C2CC(c3ccc(Cl)cc3Cl)Nc3nc(N)nn32)cc1OC (centres unmarked) [Molecule 43, COc1cc(ccc1OC)C1CC(Nc2n1nc(n2)N)c1ccc(cc1Cl)Cl]
DRC-1, concentration 2.5
  % inhibition T4 10' 2.5: 8.55%
DRC-1, concentration 5
  % inhibition T4 10' 5: 0.398%
DRC-1, concentration 10
  % inhibition T4 10' 10: 3.64%
DRC-1, concentration 20
  % inhibition T4 10' 20: 1.67%
DRC-1, concentration 40
  % inhibition T4 10' 40: 9%
DRC-1, concentration 80
  % inhibition T4 10' 80: 12%
DRC-1, read at 70', concentration 2.5
  % inhibition T4 70' 2.5: 8%
DRC-1, read at 70', concentration 5
  % inhibition T4 70' 5: 0.633%
DRC-1, read at 70', concentration 10
  % inhibition T4 70' 10: 1.77%
DRC-1, read at 70', concentration 20
  % inhibition T4 70' 20: 0.0404%
DRC-1, read at 70', concentration 40
  % inhibition T4 70' 40: 8%
DRC-1, read at 70', concentration 80
  % inhibition T4 70' 80: 9%
DRC-1, read at 130', concentration 2.5
  % inhibition T4 130' 2.5: 7%
DRC-1, read at 130', concentration 5
  % inhibition T4 130' 5: -0.436%
DRC-1, read at 130', concentration 10
  % inhibition T4 130' 10: 0.362%
DRC-1, read at 130', concentration 20
  % inhibition T4 130' 20: -1.3%
DRC-1, read at 130', concentration 40
  % inhibition T4 130' 40: 6%
DRC-1, read at 130', concentration 80
  % inhibition T4 130' 80: 8.47%
DRC-2, concentration 2.5
  % inhibition T4 10' 2.5: 3.49%
DRC-2, concentration 5
  % inhibition T4 10' 5: -2.24%
DRC-2, concentration 10
  % inhibition T4 10' 10: -1.16%
DRC-2, concentration 20
  % inhibition T4 10' 20: -2.26%
DRC-2, concentration 40
  % inhibition T4 10' 40: 0.721%
DRC-2, concentration 80
  % inhibition T4 10' 80: 0.788%
DRC-2, read at 40', concentration 2.5
  % inhibition T4 40' 2.5: 2.64%
DRC-2, read at 40', concentration 5
  % inhibition T4 40' 5: -2.79%
DRC-2, read at 40', concentration 10
  % inhibition T4 40' 10: -1.88%
DRC-2, read at 40', concentration 20
  % inhibition T4 40' 20: -2.36%
DRC-2, read at 40', concentration 40
  % inhibition T4 40' 40: 1%
DRC-2, read at 40', concentration 80
  % inhibition T4 40' 80: 0.512%
DRC-2, read at 90', concentration 2.5
  % inhibition T4 90' 2.5: 2%
DRC-2, read at 90', concentration 5
  % inhibition T4 90' 5: -3%
DRC-2, read at 90', concentration 10
  % inhibition T4 90' 10: -0.792%
DRC-2, read at 90', concentration 20
  % inhibition T4 90' 20: -3%
DRC-2, read at 90', concentration 40
  % inhibition T4 90' 40: -0.348%
DRC-2, read at 90', concentration 80
  % inhibition T4 90' 80: -1%
DRC-2, read at 180', concentration 2.5
  % inhibition T4 180' 2.5: -2.47%
DRC-2, read at 180', concentration 5
  % inhibition T4 180' 5: -8%
DRC-2, read at 180', concentration 10
  % inhibition T4 180' 10: -5%
DRC-2, read at 180', concentration 20
  % inhibition T4 180' 20: -7%
DRC-2, read at 180', concentration 40
  % inhibition T4 180' 40: -4%
DRC-2, read at 180', concentration 80
  % inhibition T4 180' 80: -2.58%

## O=C(Cc1cc(=O)[nH]c(SCc2ccccc2)n1)Nc1ccc2c(c1)OCO2 [Molecule 46, O=C(Cc1cc(=O)[nH]c(n1)SCc1ccccc1)Nc1ccc2c(c1)OCO2]
DRC-2, concentration 2.5
  % inhibition T4 10': -13%
  % inhibition T4 40': -13%
DRC-2, concentration 40
  % inhibition T4 10': 9%
  % inhibition T4 40': 9%
  % inhibition T4 90': 9%
  % inhibition T4 180': 4%
DRC-2, concentration 80
  % inhibition T4 10': 6%
  % inhibition T4 40': 6%
DRC-2, concentration 10
  % inhibition T4 90': 4%

## Cc1cccc2c(C(=O)NC(C)C)cc(N(C)C)nc12 [Molecule 47, CC(NC(=O)c1cc(nc2c1cccc2C)N(C)C)C]
DRC-2, concentration 20
  % inhibition T4 10': 28%
DRC-2, concentration 40
  % inhibition T4 10': 30%
  % inhibition T4 90': 31%
DRC-2, concentration 80
  % inhibition T4 10': 30%
  % inhibition T4 90': 31%
  % inhibition T4 180': 28%

## Cc1ccc(NC(=O)Cn2ccc3c(=O)[nH]ccc32)cc1F [Molecule 48, O=C(Cn1ccc2c1cc[nH]c2=O)Nc1ccc(c(c1)F)C]
DRC-2, concentration 5
  % inhibition T4 10': -12%
  % inhibition T4 40': -12%
  % inhibition T4 180': -12%
DRC-2, concentration 10
  % inhibition T4 90': -15%
  % inhibition T4 180': -15%
